{"source": "patent US11274332B2", "about": "“Methods of administering 3,4-diaminopyridine” (SERB SA, priority 2011, dated 2022)", "experiment": "Example 18: safety and tolerability in slow and fast acetylators", "type": "in vivo, human", "excerpt": "The primary objective of the study was to assess the safety and tolerability of 3,4-DAP phosphate after single and multiple doses. The secondary objectives of the study were • Part 1 only: To determine the dose-related PK profile of amifampridine and of 3-N-acetyl amifampridine after single, escalating doses of 3,4-DAP phosphate • Part 2 only: To assess the steady-state plasma PK and accumulation of amifampridine and of 3-N-acetyl amifampridine over multiple days of dosing with 3,4-DAP phosphate An exploratory objective was to examine the overall activity of the N-acetyl transferase enzymes on the metabolism of amifampridine by assessing the PK of amifampridine and 3-N-acetyl amifampridine with phenotypic acetylation activity and genotyping determination of NAT2 gene polymorphisms. Study Design and Plan\nPart 1 was a dose-proportionality study in 12 healthy subjects each receiving 4 ascending single oral doses of 3,4-DAP phosphate in a sequential manner (5 mg, 10 mg, 20 mg, and 30 mg). For all 12 subjects, the first 3 doses of oral 3,4-DAP phosphate (5-20 mg) were administered on 3 consecutive days (Days 1-3). Two fast and two slow acetylators (as defined by a caffeine challenge test in Example 15a) were selected as the first 4 enrolled subjects (sentinel subjects). For the 2 fast acetylators the 30 mg dose was administered on Day 4. […] Safety and tolerability data collected for all 4 subjects were reviewed and the safety and tolerability results of the 30 mg dose for these 4 sentinel subjects were acceptable. The 30 mg dose was given to the remaining 8 non-sentinel subjects on Day 7. Sentinel and non-sentinel subjects were released from the clinic on Day 5, Day 6, and Day 8 respectively, with all subjects returning for follow-tip assessments 2-4 days following their last dose.\nPart 2, Group 1: Four sentinel subjects were selected after determining their acetylator status. Two were fast acetylators and two were slow acetylators. All four were dosed on Day 1 with 4 oral doses of 20 mg of 34-DAP phosphate (given at 4-hour dosing intervals). On Days […] and 2, safety and tolerability data was collected. Subjects left the clinic on Day 2. The safety and tolerability data collected for these 4 sentinel subjects were reviewed. The safety and tolerability results of Days 1 and 2 for these subjects were acceptable and thus Part 2 Group 2 was commenced. Minimally acceptable safety was defined as the absence of clinical seizure activity. Subjects in Group 1 returned to the clinic for their follow-up assessments 2-4 days following their last dose.\nEach subject was given a final morning dose of 20 mg 3,4-DAP phosphate on Day 4. Subjects in Group 2 returned to the clinic for their follow-up assessments 2-4 days following their last dose.\nSafety assessments: During the assessment period, the following safety measures were evaluated: vital signs, adverse events (AEs), 12-lead ECG, EEG and clinical laboratory tests.\nSafety: Safety was assessed by the incidence of AEs, as well as changes in vital signs, 12-lead ECG, EEG, and clinical laboratory evaluations.\nSafety: All subjects who received any amount of study drug in either Part 1 or Part 2 of this study and had post-dose safety information were included in the safety analyses. Safety was evaluated separately for Part 1 and Part 2 and was summarized by dose levels where appropriate. All verbatim AE terms were coded using Medical Dictionary for Regulatory Activities (MedDRA) terminology. Only treatment-emergent AEs (i.e., AEs with a start date on or after the first dose of study drug) were summarized. The incidence of AEs and SAEs were summarized for each study part by dose level, system, organ, class, preferred term, relationship to study drug, and severity. No deaths during the study, no discontinuations of study drug, and no withdrawals from the study and study drug due to an AE were observed.", "data": [{"smiles": "Nc1ccncc1N.O=P(O)(O)O", "note": "[amifampridine phosphate, 3,4-diaminopyridine phosphate]", "values": [{"measurement": "seizures", "setting": "Part 1, 30 mg dose, sentinel subjects", "value": "No seizures were seen"}, {"measurement": "phenotype in which drug-related adverse events were observed", "setting": "Part 1, single doses 5-30 mg", "value": "observed in slow acetylators only"}, {"measurement": "drug-related adverse events: % of subjects", "setting": "Part 2, fast acetylators (7)", "value": 43, "unit": "%"}, {"measurement": "drug-related adverse events: events", "setting": "Part 2, fast acetylators (7)", "value": "six"}, {"measurement": "drug-related adverse events: subjects", "setting": "Part 2, fast acetylators (7)", "value": 3}, {"measurement": "drug-related adverse events: % of subjects", "setting": "Part 2, slow acetylators (7)", "value": 86, "unit": "%"}, {"measurement": "drug-related adverse events: events", "setting": "Part 2, slow acetylators (7)", "value": "Forty-five"}, {"measurement": "drug-related adverse events: subjects", "setting": "Part 2, slow acetylators (7)", "value": 6}, {"measurement": "seizures", "setting": "Part 2 Group 1, 20 mg x 4 on Day 1", "value": "No seizures occurred"}, {"measurement": "serious adverse events", "setting": "Parts 1 and 2", "value": "no serious adverse events"}, {"measurement": "severity of treatment-emergent adverse events", "setting": "Parts 1 and 2", "value": "mild and transient"}]}]}
